These results are taken from US6630505B2, “Aminopyrrolidine sulfonamides as serine protease inhibitors” (Ortho-McNeil Pharmaceutical, Inc., priority 2001, dated 2003).

The IC50 is the concentration needed to halve the response being measured. Higher therefore signals weaker potency in that assay. A word on the Ki: it is a measure of affinity in units of concentration, obtained from inhibition or displacement.

One experiment addresses T1, human Lung Tryptase.
T1 construct: 1.0 nM human Lung Tryptase
The experiment can be described thus: Tryptase inhibition, chromogenic peptide substrate hydrolysis assay. The settings on record: 1.0 nM tryptase, 500 μM N-p-Tosyl-GLY-PRO-LYS-pNA, 37° C. Type of experiment: biochemical. How it is done:
The rate of increase in absorbance at 405 nm due to hydrolysis of synthetic chromogenic peptide substrates ([S]: 500 μM N-p-Tosyl-GLY-PRO-LYS-pNA; Sigma T-6140) is measured in the presence and absence of inhibitors (I) with a microplate reader at 37° C. The enzyme reaction is started by the addition of enzyme ([E]: 1.0 nM human Lung Tryptase; Cortex Biochem CP3033). Data is collected over a period of 30 min. and the initial rate of substrate hydrolysis (Vo (mOD/min)) is calculated. Inhibition is calculated by comparing to wells […] (vehicle) and IC50s are determined using a four parameters fit logistics model.
Compound `NC(N)=Nc1ccc(C(=O)NC2CCN(S(=O)(=O)/C=C/c3ccc(Cl)cc3)C2)cc1` (stereo not shown) [Compound 26, N-[1-[[(E)-2-(4-chlorophenyl)ethenyl]sulfonyl]-3-pyrrolidinyl]-4-[(diaminomethylene)amino]-benzamide] returned an IC50 of 600 nM.
Still for that read-out and setting: the result for `NC(N)=Nc1ccc(C(=O)N(Cc2ccc(O)cc2)C2CCN(S(=O)(=O)/C=C/c3ccc(Cl)cc3)C2)cc1` (stereo not shown) [Compound 2, N-[1-[[(E)-2-(4-chlorophenyl)ethenyl]sulfonyl]-3-pyrrolidinyl]-4-[(diaminomethylene)amino]-N-[(4-hydroxyphenyl)methyl]-benzamide] reads 900 nM.
On to “N-[[4-[(aminoiminomethyl)amino]phenyl]methyl]-N-[1-[[(E)-2-(4-chlorophenyl)ethenyl]sulfonyl]-3-pyrrolidinyl]-4-[(diaminomethylene)amino]-benzamide [Compound 24]”, for which the IC50 worked out at 4000 nM. This IC50 is about 4.4-fold higher than that of the compound before.
In the case of `COC(=O)c1cc(CN(C(=O)c2ccc(N=C(N)N)cc2)C2CCN(S(=O)(=O)/C=C/c3ccc(Cl)cc3)C2)ccc1O` (stereo not shown) [Compound 25, 5-[[[1-[[(E)-2-(4-chlorophenyl)ethenyl]sulfonyl]-3-pyrrolidinyl][4-[(diaminomethylene)amino]benzoyl]amino]methyl]-2-hydroxy-benzoic acid methyl ester], the IC50 is 700 nM.

For a further experiment, the target named is T2, human Factor Xa (Homo sapiens, UniProt P00742).
T2 construct: commercial human Factor Xa (American Diagnostica); purchased American Diagnostica
T2 sequence (P00742 235-488 limits assumed): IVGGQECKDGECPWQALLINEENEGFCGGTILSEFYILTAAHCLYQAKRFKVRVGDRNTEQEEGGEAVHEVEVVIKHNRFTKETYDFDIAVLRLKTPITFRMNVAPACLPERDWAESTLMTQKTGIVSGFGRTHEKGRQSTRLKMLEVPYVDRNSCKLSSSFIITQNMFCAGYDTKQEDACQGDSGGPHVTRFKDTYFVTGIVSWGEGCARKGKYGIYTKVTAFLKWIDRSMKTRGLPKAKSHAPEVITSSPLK
T2 sequence (P00742 41-179 partner limits assumed): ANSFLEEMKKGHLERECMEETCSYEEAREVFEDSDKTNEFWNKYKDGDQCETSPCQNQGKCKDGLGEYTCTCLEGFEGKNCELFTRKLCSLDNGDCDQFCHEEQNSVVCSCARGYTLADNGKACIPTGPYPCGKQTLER
Briefly: Factor Xa inhibition, enzyme-catalyzed hydrolysis assay (chromogenic substrate). Format: biochemical. The following applies: 5.7 nM Factor Xa, 30-700 μM substrate, pH 8.4, 37° C. How it is done:
Enzyme-catalyzed hydrolysis rates were measured spectrophotometrically using commercial human Factor Xa (American Diagnostica), the chromogenic substrate (Meo—CO—D—CHG—Gly—Arg—pNa (American Diagnostica); in aqueous buffer (50 mM Trisma Base, 0.1% Tween 80, pH 8.4), and a microplate reader (Molecular Devices). Changes in absorbance at 405 nm were monitored using the software program Softmax (Molecular Devices), upon addition of enzyme, with and without inhibitor present at 37° C. for 30 minutes. The IC50 values were determined by fixing the enzyme and substrate concentrations (5.7 nM Factor Xa, 500 μM Factor Xa substrate) and varying the inhibitor concentration. Percent inhibition was calculated by comparing the initial reaction slopes of the without inhibitor samples to those with inhibitor. Inhibition constants (Ki) were determined by fixing the enzyme concentrations (5.7 nM Factor Xa) and inhibitor concentration and varying the substrate concentrations (30-700 μM Factor Xa substrate. Michaelis-Menton kinetics were applied to the initial reaction slopes using the program Kcat (Bio Metallics Inc.).
With `NC(=O)c1cccc(CN(C(=O)c2ccc(N=C(N)N)cc2)C2CCN(S(=O)(=O)/C=C/c3ccc(Cl)cc3)C2)c1` (stereo not shown) [Compound 15, 3-[[[1-[[(E)-2-(4-chlorophenyl)ethenyl]sulfonyl]-3-pyrrolidinyl][4-[(diaminomethylene)amino]benzoyl]amino]methyl]-benzamide], the affinity corresponds to a Ki of 600 nM.
For the compound `NC(N)=Nc1ccc(C(=O)N(Cc2cccc(C(=O)NCC(=O)O)c2)C2CCN(S(=O)(=O)/C=C/c3ccc(Cl)cc3)C2)cc1` (stereo not shown) [Compound 14, [[3-[[[1-[[(E)-2-(4-chlorophenyl)ethenyl]sulfonyl]-3-pyrrolidinyl][4-[(diaminomethylene)amino]benzoyl]amino]methyl]benzoyl]amino]-acetic acid], the affinity corresponds to a Ki of 300 nM.
For `NC(N)=Nc1ccc(C(=O)N(Cc2ccc(O)cc2)C2CCN(S(=O)(=O)/C=C/c3ccc(Cl)cc3)C2)cc1` (stereo not shown) [Compound 2, N-[1-[[(E)-2-(4-chlorophenyl)ethenyl]sulfonyl]-3-pyrrolidinyl]-4-[(diaminomethylene)amino]-N-[(4-hydroxyphenyl)methyl]-benzamide], the Ki is 300 nM.
Compound `NC(N)=Nc1ccc(C(=O)N(Cc2ccccc2)C2CCN(S(=O)(=O)/C=C/c3ccc(Cl)cc3)C2)cc1` (stereo not shown) [Compound 1, N-[1-[[(E)-2-(4-chlorophenyl)ethenyl]sulfonyl]-3-pyrrolidinyl]-4-[(diaminomethylene)amino]-N-(phenylmethyl)-benzamide] displayed a Ki of 1600 nM. This Ki is about 5.3-fold higher than that of the compound before.
The same measure, in the same setting: the result for “4-[(aminoiminomethyl)amino]-N-(2-benzofuranylmethyl)-N-[1-[[(E)-2-(4-chlorophenyl)ethenyl]sulfonyl]-3-pyrrolidinyl]-benzamide [Compound 27]” reads 100 nM.
The same measure, in the same setting: the result for `NC(N)=Nc1ccc(C(=O)N(Cc2cccc(OCC(=O)O)c2)C2CCN(S(=O)(=O)/C=C/c3ccc(Cl)cc3)C2)cc1` (stereo not shown) [Compound 11, [3-[[[1-[[(E)-2-(4-chlorophenyl)ethenyl]sulfonyl]-3-pyrrolidinyl][4-[(diaminomethylene)amino]benzoyl]amino]methyl]phenoxy]-acetic acid] reads 600 nM.
Take `COC(=O)CNC(=O)c1cccc(CN(C(=O)c2ccc(N=C(N)N)cc2)C2CCN(S(=O)(=O)/C=C/c3ccc(Cl)cc3)C2)c1` (stereo not shown) [Compound 13, [[3-[[[1-[[(E)-2-(4-chlorophenyl)ethenyl]sulfonyl]-3-pyrrolidinyl][4-[(diaminomethylene)amino]benzoyl]amino]methyl]benzoyl]amino]-acetic acid methyl ester]: the Ki worked out at 200 nM.
Still for that read-out and setting: in the case of `NC(=O)c1ccc(CN(C(=O)c2ccc(N=C(N)N)cc2)C2CCN(S(=O)(=O)/C=C/c3ccc(Cl)cc3)C2)cc1` (stereo not shown) [Compound 9, N-[[4-(aminocarbonyl)phenyl]methyl]-N-[1-[[(E)-2-(4-chlorophenyl)ethenyl]sulfonyl]-3-pyrrolidinyl]-4-[(diaminomethylene)amino]-benzamide] it was 300 nM; in that of `NC(N)=Nc1ccc(C(=O)N(Cc2ccc(C(=O)NCC(=O)O)cc2)C2CCN(S(=O)(=O)/C=C/c3ccc(Cl)cc3)C2)cc1` (stereo not shown) [Compound 12, [[4-[[[1-[[(E)-2-(4-chlorophenyl)ethenyl]sulfonyl]-3-pyrrolidinyl][4-[(diaminomethylene)amino]benzoyl]amino]methyl]benzoyl]-amino]-acetic acid], 400 nM; in that of `COC(=O)c1ccc(CN(C2CCN(C(=O)c3ccc(N=C(N)N)cc3)C2)S(=O)(=O)/C=C/c2ccc(Cl)cc2)cc1` (stereo not shown) [Compound 22, 4-[[[[(E)-2-(4-chlorophenyl)ethenyl]sulfonyl][1-[4-[(diaminomethylene)amino]benzoyl]-3-pyrrolidinyl]amino]methyl]-benzoic acid methyl ester], 7100 nM.
Still for that read-out and setting: in the case of `COC(=O)CNC(=O)c1ccc(CN(C(=O)c2ccc(N=C(N)N)cc2)C2CCN(S(=O)(=O)/C=C/c3ccc(Cl)cc3)C2)cc1` (stereo not shown) [Compound 10, [[4-[[[1-[[(E)-2-(4-chlorophenyl)ethenyl]sulfonyl]-3-pyrrolidinyl][4-[(diaminomethylene)amino]benzoyl]amino]methyl]benzoyl]amino]-acetic acid methyl ester] it was 200 nM.
Still for that read-out and setting: the result for `NC(N)=Nc1ccc(C(=O)N(Cc2ccc(C(=O)O)cc2)C2CCN(S(=O)(=O)/C=C/c3ccc(Cl)cc3)C2)cc1` (stereo not shown) [Compound 5, 4-[[[1-[[(E)-2-(4-chlorophenyl)ethenyl]sulfonyl]-3-pyrrolidinyl][4-[(diaminomethylene)amino]benzoyl]amino]methyl]-benzoic acid] reads 200 nM.
Compound `COC(=O)c1cccc(CN(C(=O)c2ccc(N=C(N)N)cc2)C2CCN(S(=O)(=O)/C=C/c3ccc(Cl)cc3)C2)c1` (stereo not shown) [Compound 4, 3-[[[1-[[(E)-2-(4-chlorophenyl)ethenyl]sulfonyl]-3-pyrrolidinyl][4-[(diaminomethylene)amino]benzoyl]amino]methyl]-benzoic acid methyl ester] yielded a Ki of 7700 nM.
Same read-out and setting: in the case of `NC(N)=Nc1ccc(C(=O)N(Cc2cccc(C(=O)O)c2)C2CCN(S(=O)(=O)/C=C/c3ccc(Cl)cc3)C2)cc1` (stereo not shown) [Compound 6, 3-[[[1-[[(E)-2-(4-chlorophenyl)ethenyl]sulfonyl]-3-pyrrolidinyl][4-[(diaminomethylene)amino]benzoyl]amino]methyl]-benzoic acid] it was 600 nM; in that of `COC(=O)COc1cccc(CN(C(=O)c2ccc(N=C(N)N)cc2)C2CCN(S(=O)(=O)/C=C/c3ccc(Cl)cc3)C2)c1` (stereo not shown) [Compound 8, [3-[[[1-[[(E)-2-(4-chlorophenyl)ethenyl]sulfonyl]-3-pyrrolidinyl][4-[(diaminomethylene)amino]benzoyl]amino]methyl]phenoxy]-acetic acid methyl ester], 1100 nM; in that of `NC(N)=Nc1ccc(C(=O)N2CCC(N(Cc3ccc(OCc4ccccc4)cc3)S(=O)(=O)/C=C/c3ccc(Cl)cc3)C2)cc1` (stereo not shown) [Compound 17, 2-(4-chlorophenyl)-N-[1-[4-[(diaminomethylene)amino]benzoyl]-3-pyrrolidinyl]-N-[[4-(phenylmethoxy)phenyl]methyl]-(E)-ethenesulfonamide], 4400 nM.
On to `COC(=O)c1ccc(CN(C(=O)c2ccc(N=C(N)N)cc2)C2CCN(S(=O)(=O)/C=C/c3ccc(Cl)cc3)C2)cc1` (stereo not shown) [Compound 3, 4-[[[1-[[(E)-2-(4-chlorophenyl)ethenyl]sulfonyl]-3-pyrrolidinyl][4-[(diaminomethylene)amino]benzoyl]amino]methyl]-benzoic acid methyl ester], for which the Ki was 400 nM.
Still for that read-out and setting: the result for `COc1ccc2ccc(S(=O)(=O)N(Cc3ccccc3)C3CCN(C(=O)c4ccc(N=C(N)N)cc4)C3)cc2c1` (stereo not shown) [Compound 23, N-[1-[4-[(diaminomethylene)amino]benzoyl]-3-pyrrolidinyl]-7-methoxy-N-(phenylmethyl)-2-naphthalenesulfonamide] reads 21000 nM.
